Experimental findings from patent US9872829B2, “Core sheath drug delivery devices” (Chemo Research, S.L., priority 2012, dated 2018) are described below.

For this data set the following is noted: 21 days.

Description: Etonogestrel (ETO) solubility in the hydrophilic polyurethane, Hydrothane AL 25-80A, was determined by evaluating its in-vitro elution (IVE) from core sheath IVRs containing ETO in the core at various loadings.
The core polymer was Hydrothane AL 25-80A and the sheath polymer EVA VA content 28% w/w.

Take `C#C[C@]1(O)CC[C@H]2[C@@H]3CCc4cc(O)ccc4[C@H]3CC[C@@]21C` [EE, Ethinyl Estradiol]: the “Csat in Hydrothane AL 25-80A (concentration concluded to be below Csat)” value was > 0.25%.

On to `C#C[C@]1(O)CC[C@H]2[C@@H]3CCC4=CC(=O)CC[C@@H]4[C@H]3C(=C)C[C@@]21CC` [ETO, Etonogestrel], for which the “Csat in Hydrothane AL 25-80A (concentration concluded to be below Csat)” value is listed as > 1.00%.
